According to patent US11110158B2, “Prostate-associated antigens and vaccine-based immunotherapy regimens” (Pfizer Inc., priority 2012, dated 2021):

System: human PSMA
Experiment: IFNγ ELISPOT, breaking of immune tolerance in human PSMA transgenic mice
Type: in vivo, mouse
Procedure: Eight-to-10 week-old transgenic mice were immunized using PMED method with various PSMA DNA constructs in a prime/boost/boost regimen, two weeks apart between each vaccination. Alternatively, mice were primed with adenovirus vectors encoding the PSMA antigen at 1×10^9 viral particles in 50 μl (PBS) by intramuscular injection. The adenovirus vector (pShuttle-CMV vector from Stratagene) was modified to contain NheI and BgIII restriction sites within the multiple cloning site. The DNA encoding human PSMA modified was then restriction digested with NheI and BgIII, ligated into this vector and sequence confirmed. The pShuttle human PSMA modified vector was then recombined with the pAdEasy-1 vector and virus was propagated according to the AdEasy system (Stratagene). Twenty-days later, they were boosted with PMED as described above. In each of the regimens used, antigen specific T cell response was measured 7 days after the last immunization in an interferon-gamma (IFNγ) ELISPOT assay. The ELISPOT assay is similar to the sandwich enzyme-linked immunosorbent assay (ELISA). Briefly, a capture antibody specific to IFNγ BD Bioscience, #51-2525kc) is coated onto a polyvinylidene fluoride (PVDF) membrane in a microplate overnight at 4° C. The plate is blocked with serum/protein to prevent nonspecific binding to the antibody. […]

In the case of “PSMA modified: membrane-bound polypeptide of amino acids 15-750 of human PSMA, SEQ ID NO: 9; tested as DNA construct”, the “# of positive” value (Table 12, human PSMA transgenic mice with SFC>50 / mice tested) was 2/10 and the “PSMA transgenic mice able to mount a T cell response to human PSMA” value (human PSMA transgenic mice, SFC>50 positive) was 20%.
